Test results: US20220233566A1, “NOVEL CARBONATE COMPOUND HAVING PYRROLOPYRIMIDINE SKELETON OR PHARMACEUTICALLY ACCEPTABLE SALT THEREOF” (TAIHO PHARMACEUTICAL CO., LTD., priority 2019, published 2022)

Legend:
Format in all cases: cell-based
[1] = system: DLD1; test: Growth suppression activity in human tumor cell line; details: DLD-1, 72 h; Human colorectal cancer, DLD1, 3 days
Description: (§1) Human tumor cell lines different in type were suspended in mediums, seeded in individual wells of a multi-well plate and cultured. On the day after initiation of culture, serially diluted solutions of a compound were added. Culture was carried out for further 3 days. Cells were counted by a CellTiter-Glo (manufactured by Promega KK) in accordance with the protocol recommended by Promega KK. Cell viability was calculated in accordance with the equation shown below and the concentration (IC50 (μM)) of the compound at which 50% of cell growth is inhibited was obtained.
(§2) T: Intensity of light emitted from a well containing a compound
(§3) C: Intensity of light emitted from a well containing no compound

[2] = system: BHL-89; test: as above; details: 72 h; Human hematopoietic organ tumor, BHL-89, 3 days
Description: as §1, §2, §3

[3] = system: CA9-22; test: as above; details: 72 h; Human head and neck cancer, CA9-22, 3 days
Description: as §1, §2, §3

[4] = system: HCC1806; test: as above; details: 72 h; Human breast cancer, HCC1806, 3 days
Description: as §1, §2, §3

[5] = system: CAPAN2; test: as above; details: Capan-2, 72 h; Human pancreatic cancer, CAPAN2, 3 days
Description: as §1, §2, §3

[6] = system: Mero82; test: as above; details: 72 h; Human lung cancer, Mero82, 3 days
Description: as §1, §2, §3

[7] = system: SW620; test: as above; details: SW-620, 72 h; Human colorectal cancer, SW620, 3 days
Description: as §1, §2, §3

[8] = system: N87; test: as above; details: 72 h; Human stomach cancer, N87, 3 days
Description: as §1, §2, §3

[9] = system: H526; test: as above; details: NCI-H526, 72 h; Human lung cancer, H526, 3 days
Description: as §1, §2, §3

[10] = system: NUGC3; test: as above; details: NUGC-3, 72 h; Human stomach cancer, NUGC3, 3 days
Description: as §1, §2, §3

[11] = system: H1975; test: as above; details: NCI-H1975, 72 h; Human lung cancer, H1975, 3 days
Description: as §1, §2, §3

[12] = system: MV-4-11; test: as above; details: MV4-11, 72 h; Human hematopoietic organ tumor, MV-4-11, 3 days
Description: as §1, §2, §3

[13] = system: SPC111; test: as above; details: 72 h; Human lung cancer, SPC111, 3 days
Description: as §1, §2, §3

[14] = system: HT1376; test: as above; details: HT-1376, 72 h; human bladder cancer, HT1376, 3 days
Description: as §1, §2, §3

[15] = system: MOLT4; test: as above; details: MOLT-4, 72 h; Human hematopoietic organ tumor, MOLT4, 3 days
Description: as §1, §2, §3

[16] = system: MCF7; test: as above; details: 72 h; Human breast cancer, MCF7, 3 days
Description: as §1, §2, §3

[17] = system: CCRFCEM; test: as above; details: CCRF-CEM, 72 h, Human hematopoietic organ tumor, 3 days
Description: as §1, §2, §3

[18] = system: A673; test: as above; details: 72 h; Human bone tumor, A673, 3 days
Description: as §1, §2, §3

[19] = system: BC3; test: as above; details: BC-3, 72 h; Human hematopoietic organ tumor, BC3, 3 days
Description: as §1, §2, §3

[20] = system: MES01; test: as above; details: 72 h; Human lung cancer, MES01, 3 days
Description: as §1, §2, §3

[21] = system: BCP1; test: as above; details: BCP-1, 72 h; Human hematopoietic organ tumor, BCP1, 3 days
Description: as §1, §2, §3

[22] = as above; details: 72 h; Human prostate cancer, DUI45, 3 days
Description: as §1, §2, §3

[23] = system: A172; test: as above; details: A 172, 72 h; Human brain tumor, A172, 3 days
Description: as §1, §2, §3

[24] = system: Mero83; test: as above; details: 72 h; Human lung cancer, Mero83, 3 days
Description: as §1, §2, §3

[25] = system: RPMI8226; test: as above; details: RPMI-8226, 72 h; Human hematopoietic organ tumor, RPMI8226, 3 days
Description: as §1, §2, §3

[26] = system: MKN45; test: as above; details: MKN-45, 72 h; Human stomach cancer, MKN45, 3 days
Description: as §1, §2, §3

[27] = system: HL60; test: as above; details: HL-60, 72 h; Human hematopoietic organ tumor, HL60, 3 days
Description: as §1, §2, §3

[28] = system: HS746T; test: as above; details: 72 h, Human stomach cancer, 3 days
Description: as §1, §2, §3

[29] = system: DMS273; test: as above; details: DMS-273, 72 h; Human lung cancer, DMS273, 3 days
Description: as §1, §2, §3

[30] = system: H441; test: as above; details: NCI-H441, 72 h; Human lung cancer, H441, 3 days
Description: as §1, §2, §3

[31] = system: H460; test: as above; details: NCI-H460, 72 h; Human lung cancer, H460, 3 days
Description: as §1, §2, §3

[32] = system: EBC1; test: as above; details: EBC-1, 72 h; Human lung cancer, EBC1, 3 days
Description: as §1, §2, §3

[33] = system: H2081; test: as above; details: NCI-H2081, 72 h; Human lung cancer, H2081, 3 days
Description: as §1, §2, §3

[34] = system: LN229; test: as above; details: LN-229, 72 h; Human brain tumor, LN229, 3 days
Description: as §1, §2, §3

[35] = system: H226; test: as above; details: NCI-H226, 72 h; Human lung cancer, H226, 3 days
Description: as §1, §2, §3

IC50 [1]: 50 nM | IC50 [2]: 230 nM | IC50 [3]: 80 nM | IC50 [4]: 130 nM | IC50 [5]: 50 nM | IC50 [6]: 460 nM | IC50 [7]: 230 nM | IC50 [8]: 30 nM | IC50 [9]: 170 nM | IC50 [10]: 70 nM | IC50 [11]: 70 nM | IC50 [12]: 30 nM | IC50 [13]: 360 nM | IC50 [14]: 60 nM | IC50 [15]: 60 nM | IC50 [16]: 80 nM | IC50 [17]: 50 nM | IC50 [18]: 130 nM | IC50 [19]: 20 nM | IC50 [20]: 410 nM | IC50 [21]: 110 nM | IC50 [22]: 90 nM | IC50 [23]: 140 nM | IC50 [24]: 350 nM | IC50 [25]: 340 nM | IC50 [26]: 210 nM | IC50 [27]: 300 nM | IC50 [28]: 250 nM | IC50 [29]: 400 nM | IC50 [30]: 140 nM | IC50 [31]: 80 nM | IC50 [32]: 60 nM | IC50 [33]: 90 nM | IC50 [34]: 630 nM | IC50 [35]: 130 nM
SMILES: Nc1ncnc2c1c(Br)cn2[C@@H]1O[C@H](CO)[C@@H](O)[C@@H]1F [Comparative Example 1, (2R,3R,4S,5R)-5-(4-amino-5-bromo-7H-pyrrolo[2,3-d]pyrimidin-7-yl)-4-fluoro-2-(hydroxymethyl) tetrahydrofuran-3-ol]
